Results taken from the supplement of paper PMC6045584.
± gives the standard deviation of the averaged measurements.

What was measured:
FORETINIB = compound: COc1cc2c(Oc3ccc(NC(=O)C4(C(=O)Nc5ccc(F)cc5)CC4)cc3F)ccnc2cc1OCCCN1CCOCC1 [FORETINIB]; test: surviving fraction relative to DMSO-only wells; higher = less growth inhibition; conditions: exposure time: 5 days
In short: (§1)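 Log-phase tumour cells were seeded at 250–500 per well in 384-well plates and, from 24 hours after seeding, exposed continuously for five days to inhibitors at 0.5, 1, 5, 10, 50, 100, 500 and 1000 nM. Surviving fraction is CellTiter-Glo luminescence normalised to the median of DMSO-only wells. Luminescence was measured after 10 minutes at room temperature, and only lines screened three times with replicate Pearson r >0.7 and median Z' >0.3 were kept.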

[1] = compound: COc1cc2ncnc(Nc3ccc(F)c(Cl)c3)c2cc1NC(=O)/C=C/CN1CCCCC1; test: as above; conditions: exposure time: 5 days
In short: as §1

| Test System | surviving fraction (FORETINIB; 0.5 nM) | surviving fraction (FORETINIB; 1 nM) | surviving fraction (FORETINIB; 5 nM) | surviving fraction (FORETINIB; 10 nM) | surviving fraction (FORETINIB; 50 nM) | surviving fraction (FORETINIB; 100 nM) | surviving fraction (FORETINIB; 500 nM) | surviving fraction (FORETINIB; 1000 nM) | surviving fraction ([1]; 0.5 nM) | surviving fraction ([1]; 1 nM) | surviving fraction ([1]; 5 nM) | surviving fraction ([1]; 10 nM) | surviving fraction ([1]; 50 nM) | surviving fraction ([1]; 100 nM) | surviving fraction ([1]; 500 nM) | surviving fraction ([1]; 1000 nM) |
| --- | --- | --- | --- | --- | --- | --- | --- | --- | --- | --- | --- | --- | --- | --- | --- | --- |
| CASKI CERVIX | 0.902 ± 0.072 | 0.929 ± 0.013 | 0.962 ± 0.019 | 0.943 ± 0.018 | 0.988 ± 0.062 | 0.976 ± 0.06 | 0.322 ± 0.026 | 0.188 ± 0.0057 | 0.801 ± 0.054 | 0.762 ± 0.015 | 0.468 ± 0.0036 | 0.336 ± 0.024 | 0.285 ± 0.025 | 0.2623 ± 0.0023 | 0.0627 ± 0.013 | 0.024 ± 0.002 |
| BT549 BREAST | 1.09 ± 0.059 | 1.08 ± 0.059 | 1.09 ± 0.15 | 1.12 ± 0.089 | 1.08 ± 0.12 | 1.15 ± 0.12 | 0.701 ± 0.022 | 0.222 ± 0.014 | 0.991 ± 0.049 | 1.1 ± 0.15 | 1.02 ± 0.17 | 1.06 ± 0.13 | 1 ± 0.037 | 0.927 ± 0.14 | 0.727 ± 0.058 | 0.473 ± 0.08 |
| MHM BONE | 1.04 ± 0.015 | 1.01 ± 0.012 | 1.05 ± 0.015 | 1.08 ± 0.026 | 1.03 ± 0.017 | 0.973 ± 0.0092 | 0.859 ± 0.026 | 0.8 ± 0.016 | 1.01 ± 0.044 | 0.998 ± 0.021 | 1.02 ± 0.025 | 0.998 ± 0.032 | 1.01 ± 0.011 | 1.03 ± 0.024 | 0.974 ± 0.011 | 0.926 ± 0.016 |
| DU4475 BREAST | 0.942 ± 0.16 | 1.03 ± 0.019 | 0.931 ± 0.066 | 0.971 ± 0.19 | 0.979 ± 0.11 | 0.821 ± 0.13 | 0.715 ± 0.031 | 0.644 ± 0.043 | 0.798 ± 0.057 | 0.876 ± 0.044 | 0.901 ± 0.12 | 0.987 ± 0.21 | 0.908 ± 0.14 | 1.09 ± 0.14 | 1.14 ± 0.19 | 0.985 ± 0.054 |
| MDAMB468 BREAST | 1.02 ± 0.03 | 1.05 ± 0.059 | 1.12 ± 0.077 | 1.09 ± 0.03 | 1.15 ± 0.086 | 1.06 ± 0.076 | 0.928 ± 0.082 | 0.356 ± 0.014 | 0.997 ± 0.094 | 1.04 ± 0.033 | 0.8783 ± 0.0035 | 0.854 ± 0.063 | 0.626 ± 0.013 | 0.676 ± 0.035 | 0.438 ± 0.016 | 0.286 ± 0.014 |
| LNCAP PROSTATE | 1.04 ± 0.022 | 1.02 ± 0.046 | 0.968 ± 0.075 | 1.01 ± 0.1 | 0.997 ± 0.074 | 1.04 ± 0.039 | 0.261 ± 0.03 | 0.189 ± 0.028 | 0.807 ± 0.074 | 0.828 ± 0.13 | 0.858 ± 0.19 | 0.888 ± 0.16 | 0.95 ± 0.043 | 1.02 ± 0.048 | 0.896 ± 0.097 | 0.797 ± 0.12 |
| SNU475 LIVER | 1.05 ± 0.052 | 1.03 ± 0.025 | 0.957 ± 0.087 | 1 ± 0.036 | 0.967 ± 0.016 | 0.979 ± 0.035 | 0.853 ± 0.055 | 0.502 ± 0.03 | 0.967 ± 0.017 | 0.96 ± 0.017 | 0.92 ± 0.037 | 0.927 ± 0.086 | 0.897 ± 0.022 | 0.895 ± 0.05 | 0.698 ± 0.038 | 0.481 ± 0.028 |
| HUO3N1 BONE | 1 ± 0.035 | 0.992 ± 0.079 | 1.06 ± 0.059 | 1.01 ± 0.039 | 0.903 ± 0.04 | 0.819 ± 0.006 | 0.619 ± 0.02 | 0.412 ± 0.025 | 1.03 ± 0.037 | 0.983 ± 0.057 | 1.06 ± 0.065 | 1 ± 0.016 | 1.07 ± 0.073 | 1.03 ± 0.059 | 0.789 ± 0.018 | 0.629 ± 0.032 |
| HCC1806 BREAST | 1.13 ± 0.071 | 0.942 ± 0.035 | 1.21 ± 0.031 | 1.12 ± 0.038 | 1.16 ± 0.11 | 1.12 ± 0.056 | 0.468 ± 0.014 | 0.452 ± 0.033 | 1.11 ± 0.16 | 1.05 ± 0.11 | 1 ± 0.083 | 0.79 ± 0.046 | 0.663 ± 0.087 | 0.573 ± 0.014 | 0.458 ± 0.052 | 0.322 ± 0.022 |
| COLO320DM LARGE INTESTINE | 1.09 ± 0.087 | 1.13 ± 0.066 | 1.07 ± 0.026 | 1.12 ± 0.076 | 1.05 ± 0.045 | 1.08 ± 0.11 | 0.517 ± 0.023 | 0.429 ± 0.05 | 1.04 ± 0.011 | 1.15 ± 0.067 | 1.07 ± 0.015 | 1.07 ± 0.068 | 1.12 ± 0.076 | 1.07 ± 0.055 | 0.685 ± 0.03 | 0.377 ± 0.025 |
| ZR751 BREAST | 1.04 ± 0.21 | 1.12 ± 0.12 | 0.969 ± 0.1 | 1.06 ± 0.16 | 0.963 ± 0.06 | 1.07 ± 0.062 | 0.902 ± 0.062 | 0.783 ± 0.1 | 1.07 ± 0.11 | 0.919 ± 0.043 | 0.791 ± 0.018 | 0.859 ± 0.076 | 0.762 ± 0.095 | 0.768 ± 0.04 | 0.625 ± 0.056 | 0.415 ± 0.087 |
